Data on 4 compounds can be found in patent US8710184B2, “Motilin-like peptide compound having transmucosal absorbability imparted thereto” (Daiichi Sankyo Company, Limited, priority 2009, dated 2014).

Where “and” joins values, the source holds several entries; their conditions need not be identical. Equal entries are not always repeated. Starred links: 1 amine or outer side, 2 acyl side, 3 side chain; linkers in the order of their positions; H or OH if unused. Non-standard residues stand in square brackets, D forms with d. Residues, ends and D or L forms follow the SMILES beside them. No end group written: not given here. β3hPhg = O=C(C[C@@H](N[*:1])c1ccccc1)[*:2]; Sar = CNCC(=O)O

A short description of series [1]: Pharmacokinetic experiment on pulmonarily administered native motilin and motilin derivative compounds in rats (RIA). The class given is in vivo, rat. Conditions: for Cmax / AUC / BA: 25 μg/rat; for AUC: trapezoidal method; for BA: relative to AUC of intravenous native motilin. The procedure:
As test animals, 7- to 10-wk old male SD rats (purchased from CHARLES RIVER LABORATORIES JAPAN, INC.) that consisted of 3 rats per a group were subjected to the following experiment. Native motilin or motilin derivative compounds were dissolved in an aqueous solution of 0.1 N acetic acid to prepare a solution at a concentration of 1 mg/mL and 25 μL of the solution was administered into the polyethylene tube through the trachea by means of an intratracheal liquid spraying device (MicroSprayer; product of Penn Century). […] In the measurement, the respective derivatives were used as standard substances to construct calibration curves for determining the plasma levels.
Using these values, bioavailability (BA (%)) was calculated by the following equation: BA(%)=[(AUC/Dose)/(AUC(motilin—iv)/Dose(motilin—iv))]×100 • AUC: AUC (ng·min/mL) after pulmonary administration • Dose: dose (μg/kg) in pulmonary administration • AUC (motilin_iv): AUC (ng·min/mL) after intravenous administration of native motilin • Dose (motilin_iv): dose (μg/kg) in intravenous administration of native motilin.

The test system of series [2] is conscious dog's gastrointestinal tract. As to the kind of experiment: Fasting IMC inducing activity in conscious dogs (force transducers). In kind it is in vivo. Particulars: for IMC Inducing activity: fasting period, intravenous, 0.1 μg/kg. The text has this: More specifically, dogs under anesthesia were subjected to a surgical operation in which force transducers were sutured to the serous membranes of the gastric antrum, duodenum, jejunum and ileum along the ring-shaped muscle and, thereafter, the strain from each transducer was sent to a recorder via an amplifier.

A short description of series [3]: HPLC fractionation and RIA of rat plasma after pulmonary administration (unaltered form vs metabolites). In kind it is in vivo. The procedure:
This example was conducted with a view to measuring by RIA the changes that occurred in rats in terms of the plasma concentrations of pulmonarily administered native motilin and motilin derivative compounds. When the RIA technique is applied, all substances that react with the anti-motilin antibody are detected, so aside from unaltered forms, metabolites that react with the antibody are also likely to be detected.
To be more specific, a polyethylene tube (PE-240; product of Clay Adams) was inserted into the trachea of 7-wk old male SD rats (purchased from CHARLES RIVER LABORATORIES JAPAN, INC.); native motilin or compound 2 (MT114) was dissolved in an aqueous solution of 0.1 N acetic acid to prepare a solution at a concentration of 1 mg/mL and 25 μL of the solution was administered into the polyethylene tube through the trachea by means of an intratracheal liquid spraying device (MicroSprayer; product of Penn Century). Five minutes after the administration, blood was sampled through the abdominal aorta and treated as in Comparative Example 1 to separate plasma. […] For each sample, an eluate was sampled at one-minute intervals from just after the sample injection to a 40-minute after sample injection and the immunological activity in each fraction was measured by RIA.

A short description of series [4]: Pharmacokinetic experiment on intravenously administered native motilin in rats (RIA). In kind it is in vivo. Particulars: male, SD, rat, plasma, 100 ug/kg, intravenous, 100 μg/kg. How it is done:
Native motilin was administered intravenously to rats and its plasma levels were measured.
As test animals, 7-wk old male SD rats (purchased from CHARLES RIVER LABORATORIES JAPAN, INC.) that consisted of 3 rats per a group were subjected to the following experiment. Native motilin was dissolved in a 5% mannitol solution to prepare a solution at a concentration of 100 μg/mL and this solution was administered to each rat at a dose of 1 mL/kg through the tail vein by means of a syringe and a 26G needle (both being products of TERUMO).

Series [5] can be described thus: Motilin degradation experiment using a lung homogenate supernatant. The class given is in vitro ADME. An excerpt:
To solve this problem, the present inventors first assumed that motilin might be degraded after noninvasive transmucosal administration and performed a motilin degradation experiment using a lung homogenate supernatant.

A short description of series [6]: Pharmacokinetic experiment on intranasally administered native motilin and a motilin derivative compound in monkeys (RIA). In kind it is in vivo, cynomolgus monkey. Conditions: intranasal administration; for BA: relative to intravenous AUC of each compound; for AUC / Cmax: male, cynomolgus monkey, plasma, inhaled or intranasal, mean for N = 1-2. How it is done: This example was conducted with a view to measuring by RIA the changes that occurred in monkeys in terms of the plasma concentrations of transnasally administered native motilin and a motilin derivative compound.
In the experiment, 10- to 11-year old male cynomolgus monkeys were used. Native motilin or compound 2 and microcrystalline cellulose were mixed at a ratio of 1:40 to prepare intranasal preparations, 20-mg portions of which were filled into gelatin capsules. Each capsule was administered into the right nasal cavity of each animal by means of an intranasal administration device (product of Hitachi Automotive Systems, Ltd.). Before administration and 5, 10, 15, 20, 30, 60, 120 and 180 minutes after administration, blood was sampled through the cephalic vein. The collected blood sample was treated as in Comparative Example 2 to separate plasma and the concentrations of native motilin and the motilin derivative compound in plasma were measured by RIA. In the measurement, the respective derivatives were used as standard substances to construct calibration curves for determining the plasma levels.
Using these values, bioavailability (BA (%)) was calculated by the following equation: BA(%)=[(AUC/Dose)/(AUC(iv)/Dose(iv))]×100 • AUC: AUC (ng·min/mL) after intranasal administration • Dose: dose (μg/kg) in intranasal administration • AUC (iv): AUC (ng·min/mL) after intravenous administration of each compound • Dose (iv): dose (μg/kg) in intravenous administration of each compound.

A short description of a further series: in vivo. Particulars: male, cynomolgus monkey, iv, 10 ug/kg. How it is done:
In this example, native motilin and a motilin derivative compound were administered intravenously to monkeys and their plasma concentrations were measured.
As test animals, 8- to 9-year old male cynomolgus monkeys (N=1-2 per group) were subjected to the following experiment. Native motilin and compound 2 were each dissolved in a 5% mannitol solution to prepare solutions at a concentration of 100 μg/mL; the solutions were administered to the animals at a dose of 0.1 mL/kg through the right cephalic vein by means of a syringe and a needle (both being products of TERUMO). Before administration and 5, 10, 15, 20, 30 and 60 minutes after administration, blood was sampled through the left cephalic vein.
To the collected sample, a 10% EDTA.2Na.2H2O solution was immediately added at a volume ratio of 1:100 and the plasma was separated by centrifugation. The plasma was immediately mixed with a 5,000 IU/mL aprotinin solution at a volume ratio of 1:10 and stored at −80° C. until use in measurement.
Measurement of the plasma concentrations of native motilin and the motilin derivative compound was conducted by the radioimmunoassay (RIA) technique using an anti-motilin antibody. Stated more specifically, after adding an anti-motilin antibody to the plasma sample, [^125I-Tyr7] motilin was added for a competitive reaction to take place. By subsequent addition of a secondary antibody, the motilin binding to the anti-motilin antibody was precipitated and after separating the supernatant, the radioactivity in the precipitating faction was measured with a γ-counter (product of PerkinElmer).
From the obtained profiles for the plasma concentrations of native motilin and the motilin derivative compound, the plasma concentration at time zero (C0) and the area under curve for plasma concentrations (AUC) were calculated as pharmacokinetic parameters; C0 was determined by extrapolation and AUC by the trapezoidal method.

The conditions of series [7]: Non-Patent Document 18; cited from earlier work.
[8] abbreviates: in vivo, pulmonary administration.
Setting [9] is: male, SD, plasma, other: pulmonary administration (intratracheal liquid spray).
[10] abbreviates: male, SD, plasma, inhaled or intranasal, 25 ug/animal, pulmonary administration.

The Cmax is the peak of the concentration-time curve. In series [1] (setting [8]), `CC[C@H](C)[C@H](NC(=O)CN(C)C(=O)[C@@H](NC(=O)C[C@@H](N)c1ccccc1)C(C)C)C(=O)N[C@@H](Cc1ccccc1)C(=O)N[C@H](C(=O)N[C@@H](Cc1ccc(O)cc1)C(=O)NCC(=O)N[C@@H](CCC(=O)O)C(=O)N[C@@H](CC(C)C)C(=O)N[C@@H](CCC(N)=O)C(=O)N[C@@H](CCCNC(=N)N)C(=O)N[C@@H](CCSC)C(=O)N[C@@H](CCC(N)=O)C(=O)N[C@@H](CCC(=O)O)C(=O)N[C@@H](CCCCN)C(=O)N[C@@H](CCC(=O)O)C(=O)N[C@@H](CCCNC(=N)N)C(=O)N1CCC[C@H]1C(=O)N[C@@H](CCCCN)C(=O)N1CCC[C@H]1C(=O)N[C@@H](CCC(N)=O)C(=O)O)[C@@H](C)O` [Compound 10, Phg(C#CH2) Val Sar Ile Phe Thr Tyr Gly Glu Leu Gln Arg Met Gln Glu Lys Glu Arg Pro Lys Pro Gln] (β3hPhg-V[Sar]IFTYGELQRMQEKERPKPQ-OH; N-terminus and C-terminus assumed) had a Cmax of 6.1 ± 1.5 ng/mL and an AUC of 3.16 ng·h/mL. Also, the BA in series [1] (pulmonary administration) was determined as 5.9 ± 0.8%. Also, the “IMC Inducing activity” value in series [2] is “Positive”.

As for `CC[C@H](C)[C@H](NC(=O)[C@@H]1CCCN1C(=O)[C@@H](NC(=O)[C@@H](N)Cc1ccccc1)C(C)C)C(=O)N[C@@H](Cc1ccccc1)C(=O)N[C@H](C(=O)N[C@@H](Cc1ccc(O)cc1)C(=O)NCC(=O)N[C@@H](CCC(=O)O)C(=O)N[C@@H](CC(C)C)C(=O)N[C@@H](CCC(N)=O)C(=O)N[C@@H](CCCNC(=N)N)C(=O)N[C@@H](CCSC)C(=O)N[C@@H](CCC(N)=O)C(=O)N[C@@H](CCC(=O)O)C(=O)N[C@@H](CCCCN)C(=O)N[C@@H](CCC(=O)O)C(=O)N[C@@H](CCCNC(=N)N)C(=O)N[C@@H](CC(N)=O)C(=O)N[C@@H](CCCCN)C(=O)NCC(=O)N[C@@H](CCC(N)=O)C(=O)O)[C@@H](C)O` [Native motilin, reference compound], the Cmax in series [1] (setting [9]) was found to be 7.84 ± 0.98 ng/mL; in series [6] (0.49 mg/animal), 13.6 ng/mL. Besides, the AUC is 1.58 ng·h/mL in series [1] (setting [9]); 60 ng·h/mL in series [4] (trapezoidal method, read-out: area under curve for plasma concentrations (AUC) (converted)); 4.02 ng·h/mL in series [6] (0.49 mg/animal); 13.1 ng·h/mL in the series “in vivo”. The BA in series [1] (pulmonary administration) amounted to 3.3 ± 0.1%; in series [1] (pulmonary administration, listed as native motilin), 3.3%; in series [6], 3.6%. The “immunological activity peaks in HPLC fractions of plasma” value in series [3] (rat, in vivo) is reported as “detected only at the elution point corresponding to the administered compound (in unaltered form)”. The C0 in series [4] (by extrapolation, read-out: plasma concentration at time zero (C0)) is 1800 ng/mL; in the series “in vivo” it was 233 ng/mL. The “degradation in lung homogenate supernatant” value in series [5] is listed as “found to be degraded”. Also, in series [2], the “IMC Inducing activity” value is “Positive”. Further, the “duration of contraction of the duodenum” value in series [2] (intravenous 0.1 μg/kg, FIG. 1) is reported as “about 10 minutes”. Moreover, the “duration of contraction of the gastric antrum” value in series [2] (intravenous 0.1 μg/kg, FIG. 1) is “about 10 minutes”.

As for FVPIFTYGELQRLQEKERNKPQ [Compound 2], the values for the Cmax in series [1] (setting [10]) and in series [6] were 26.6 ± 11.3 ng/mL and 23.5 ng/mL, respectively. In addition, the AUC in series [1] (setting [10]) was 5.84 ng·h/mL; in series [6] it was 6.02 ng·h/mL; in the series “in vivo” it was 15.4 ng·h/mL. In addition, the BA in series [1] (pulmonary administration) was 10.4% and 10.4 ± 4.3%; in series [6], 5.1%. In addition, the “profile of plasma concentration compared with native motilin” value is reported as “high peak levels” in series [1] (pulmonary administration, FIG. 3) and “a high peak level” in series [6] (FIG. 5). The “immunological activity peaks in HPLC fractions of plasma” value in series [3] (rats, pulmonary administration, plasma 5 minutes after administration) is “detected only at the elution point corresponding to the administered compound (in unaltered form)”. The C0 in the series “in vivo” stood at 273 ng/mL.

Take atilmotin: the half-life in plasma result in series [7] was “about 10 minutes”.
